Reference: US20120129842A1, “BISTHIAZOLE INHIBITORS OF PRO-MATRIX METALLOPROTEINASE ACTIVATION” (priority 2010, published 2012)

Molecular target: T1, proMMP9(20-445;ΔFnII) (SEQ ID NO:6) (Homo sapiens, UniProt P14780, DEL216-390)
T1 construct: start methionine (N); made in house; host or cells: E. coli BL21(DE3) RIL
T1 sequence (P14780 with tags, fused parts or gaps DEL216-390): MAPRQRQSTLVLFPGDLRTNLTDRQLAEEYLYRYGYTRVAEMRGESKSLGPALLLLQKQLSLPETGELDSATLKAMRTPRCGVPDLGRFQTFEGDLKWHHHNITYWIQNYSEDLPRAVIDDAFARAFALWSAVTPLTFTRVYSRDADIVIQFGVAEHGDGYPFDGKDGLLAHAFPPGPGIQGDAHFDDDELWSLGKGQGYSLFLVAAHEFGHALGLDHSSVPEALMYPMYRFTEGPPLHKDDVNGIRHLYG
Test: ThermoFluor binding assay with proMMP9(20-445;ΔFnII)
Settings: pH 7.0
How it was run: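 proMMP9(20-445;ΔFnII) at 2.8 μM with 50 μM 1,8-ANS in 50 mM HEPES pH 7.0, 100 mM NaCl, 0.001% Tween-20, 2.5 mM MgCl2, 300 μM CaCl2; compounds serially diluted in DMSO. Heated 40–90 °C at 1 °C/min, fluorescence read at 500±25 nm. Tm fit by standard equations; binding fit using DSC/TF-derived thermodynamic parameters.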

SMILES: Cc1nc(C)c(-c2csc(Nc3cc(S(N)(=O)=O)ccc3OC(C)C)n2)s1 [Example 64, 3-(2′,4′-Dimethyl-[4,5′]bithiazolyl-2-ylamino)-4-isopropoxy-benzenesulfonamide.HBr]
- Kd: 100 nM
